Results: patent US12077503B2, “Substituted cyclic amides and their use as herbicides” (FMC CORPORATION, priority 2015, dated 2024)
Where two headings read alike, the source gives them in different places.

Assays:
Assay type in all cases: in vivo
[1] = test system: Galium (catchweed bedstraw, Galium aparine); experiment: Test A postemergence; conditions: Galium, post-emergence, 240 h, Postemergence; for pest or weed control at 125 g/ha: 125 g ai/ha, visual rating about 10 d after treatment, read-out: Galium plant response rating (0 to 100 scale); for pest or weed control at 500 g/ha: 500 g ai/ha, visual injury, 0 to 100 scale (0 no effect, 100 complete control), approx. 10 d, read-out: Plant response rating, Galium
Summary of the method: (§1)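 Greenhouse, ~10 d after spray; visual injury vs untreated controls, 0 = no effect, 100 = complete control. Preemergence: directed soil spray over planted seeds. Postemergence: plants 2–10 cm, 1–2 leaf stage. Loam/sand blend. Compound in non-phytotoxic solvent with surfactant.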

Kochia (Kochia scoparia) = experiment: Test A postemergence; conditions: Bassia scoparia, post-emergence, 240 h, Postemergence; for pest or weed control at 125 g/ha: 125 g ai/ha, visual rating about 10 d after treatment, read-out: Kochia plant response rating (0 to 100 scale); for pest or weed control at 500 g/ha: 500 g ai/ha, visual injury, 0 to 100 scale (0 no effect, 100 complete control), approx. 10 d, read-out: Plant response rating, Kochia
Summary of the method: as §1

[2] = test system: barnyardgrass (Echinochloa crus-galli); experiment: Test A postemergence; conditions: Echinochloa crus-galli, post-emergence, 240 h, Postemergence; for pest or weed control at 125 g/ha: 125 g ai/ha, visual rating about 10 d after treatment, read-out: Barnyardgrass plant response rating (0 to 100 scale, 0 no effect, 100 complete control); for pest or weed control at 500 g/ha: 500 g ai/ha, visual injury, 0 to 100 scale (0 no effect, 100 complete control), approx. 10 d, read-out: Plant response rating, Barnyardgrass
Summary of the method: as §1

[3] = test system: blackgrass (Alopecurus myosuroides); experiment: Test A postemergence; conditions: Alopecurus myosuroides, post-emergence, 240 h, Postemergence; for pest or weed control at 125 g/ha: 125 g ai/ha, visual rating about 10 d after treatment, read-out: Blackgrass plant response rating (0 to 100 scale); for pest or weed control at 500 g/ha: 500 g ai/ha, visual injury, 0 to 100 scale (0 no effect, 100 complete control), approx. 10 d, read-out: Plant response rating, Blackgrass
Summary of the method: as §1

corn (Zea mays) = experiment: Test A postemergence; conditions: Zea mays, post-emergence, 240 h, Postemergence; for plant injury at 125 g/ha: 125 g ai/ha, visual rating about 10 d after treatment, read-out: Corn plant response rating (0 to 100 scale); for Corn plant response rating (crop injury, 0 = no effect, 100 = complete kill) at 500 g/ha: 500 g ai/ha, visual injury, 0 to 100 scale (0 no effect, 100 complete control), approx. 10 d
Summary of the method: as §1

[4] = test system: giant foxtail (Setaria faberii); experiment: Test A postemergence; conditions: Setaria faberi, post-emergence, 240 h, Postemergence; for pest or weed control at 125 g/ha: 125 g ai/ha, visual rating about 10 d after treatment, read-out: Foxtail, Giant plant response rating (0 to 100 scale); for pest or weed control at 500 g/ha: 500 g ai/ha, visual injury, 0 to 100 scale (0 no effect, 100 complete control), approx. 10 d, read-out: Plant response rating, Foxtail, Giant
Summary of the method: as §1

[5] = test system: pigweed (Amaranthus retroflexus); experiment: Test A postemergence; conditions: Amaranthus retroflexus, post-emergence, 240 h, Postemergence; for pest or weed control at 125 g/ha: 125 g ai/ha, visual rating about 10 d after treatment, read-out: Pigweed plant response rating (0 to 100 scale); for pest or weed control at 500 g/ha: 500 g ai/ha, visual injury, 0 to 100 scale (0 no effect, 100 complete control), approx. 10 d, read-out: Plant response rating, Pigweed
Summary of the method: as §1

[6] = test system: ragweed (common ragweed, Ambrosia elatior); experiment: Test A postemergence; conditions: Ambrosia artemisiifolia, post-emergence, 240 h, Postemergence; for pest or weed control at 125 g/ha: 125 g ai/ha, visual rating about 10 d after treatment, read-out: Ragweed plant response rating (0 to 100 scale); for pest or weed control at 500 g/ha: 500 g ai/ha, visual injury, 0 to 100 scale (0 no effect, 100 complete control), approx. 10 d, read-out: Plant response rating, Ragweed
Summary of the method: as §1

[7] = test system: ryegrass, Italian (Italian ryegrass, Lolium multiflorum); experiment: Test A postemergence; conditions: Lolium multiflorum, post-emergence, 240 h, Postemergence; for pest or weed control at 125 g/ha: 125 g ai/ha, visual rating about 10 d after treatment, read-out: Ryegrass, Italian plant response rating (0 to 100 scale); for pest or weed control at 500 g/ha: 500 g ai/ha, visual injury, 0 to 100 scale (0 no effect, 100 complete control), approx. 10 d, read-out: Plant response rating, Ryegrass, Italian
Summary of the method: as §1

[8] = test system: wheat (Triticum aestivum); experiment: Test A postemergence; conditions: Triticum aestivum, post-emergence, 240 h, Postemergence; for plant injury at 125 g/ha: 125 g ai/ha, visual rating about 10 d after treatment, read-out: Wheat plant response rating (0 to 100 scale); for plant injury at 500 g/ha: 500 g ai/ha, visual injury, 0 to 100 scale (0 no effect, 100 complete control), approx. 10 d, read-out: Plant response rating, Wheat
Summary of the method: as §1

[9] = test system: barnyardgrass (Echinochloa crus-galli); experiment: Test B flooded paddy test; conditions: Echinochloa crus-galli, 250 g ai/ha, Flood; 0 to 100 scale where 0 is no effect and 100 is complete control; read-out: Barnyardgrass plant response rating
Summary of the method: (§2)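 Plants at 2-leaf stage flooded to 3 cm above soil, with compounds applied directly to paddy water and that depth maintained. Plants kept in greenhouse 13–15 d. Visual rating versus controls on a 0 (no effect) to 100 (complete control) scale.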

[10] = test system: ducksalad (Heteranthera limosa); experiment: Test B flooded paddy test; conditions: Heteranthera limosa, 250 g ai/ha, Flood; 0 to 100 scale where 0 is no effect and 100 is complete control; read-out: Ducksalad plant response rating
Summary of the method: as §2

rice (Oryra sativa) = experiment: Test B flooded paddy test; conditions: Oryza sativa, 250 g ai/ha, Flood; 0 to 100 scale where 0 is no effect and 100 is complete control; read-out: Rice plant response rating
Summary of the method: as §2

[11] = test system: sedge, umbrella (small-flower umbrella sedge, Cyperus difformis); experiment: Test B flooded paddy test; conditions: Cyperus difformis, 250 g ai/ha, Flood
Summary of the method: as §2

[12] = 0 to 100 scale where 0 is no effect and 100 is complete control, read-out: Sedge, Umbrella plant response rating
[13] = 360 h, visually evaluated after 13 to 15 d, read-out: Plant response rating, Sedge, Umbrella (0 to 100 scale where 0 is no effect and 100 is complete control)

| SMILES | pest or weed control at 125 g/ha [1] [%] | pest or weed control at 500 g/ha [1] [%] | pest or weed control at 125 g/ha (Kochia (Kochia scoparia)) [%] | pest or weed control at 500 g/ha (Kochia (Kochia scoparia)) [%] | pest or weed control at 125 g/ha [2] [%] | pest or weed control at 500 g/ha [2] [%] | pest or weed control at 125 g/ha [3] [%] | pest or weed control at 500 g/ha [3] [%] | plant injury at 125 g/ha (corn (Zea mays)) [%] | Corn plant response rating (crop injury, 0 = no effect, 100 = complete kill) at 500 g/ha (corn (Zea mays)) [%] | pest or weed control at 125 g/ha [4] [%] | pest or weed control at 500 g/ha [4] [%] | pest or weed control at 125 g/ha [5] [%] | pest or weed control at 500 g/ha [5] [%] | pest or weed control at 125 g/ha [6] [%] | pest or weed control at 500 g/ha [6] [%] | pest or weed control at 125 g/ha [7] [%] | pest or weed control at 500 g/ha [7] [%] | plant injury at 125 g/ha [8] [%] | plant injury at 500 g/ha [8] [%] | also measured |
| --- | --- | --- | --- | --- | --- | --- | --- | --- | --- | --- | --- | --- | --- | --- | --- | --- | --- | --- | --- | --- | --- |
| COc1cc([C@H]2CN(C)C(=O)[C@@H]2C(=O)Nc2ccccc2SC)ccc1F [Compound 1301] | 20 | 60 | 0 | 50 | 20 | 90 | 0 | 0 | 0 | 0 | 20 | 20 | 0 | 0 | 0 | 0 | 0 | 0 | 0 | 0 | pest or weed control at 250 g/ha [9]: 0%; pest or weed control at 250 g/ha [10]: 20%; pest or weed control at 250 g/ha (rice (Oryra sativa)): 0%; pest or weed control at 250 g/ha [11, 12]: 0% |
| Cc1c(F)cccc1NC(=O)[C@H]1C(=O)NC[C@@H]1c1cccc2c1OC(F)(F)O2 [Compound 1305] | 0 | 0 | 0 | 0 | 60 | 80 | 0 | 0 | 0 | 0 | 80 | 90 | 0 | 0 | 0 | 0 | 0 | 0 | 0 | 20 | pest or weed control at 250 g/ha [9]: 20%; pest or weed control at 250 g/ha [10]: 70%; pest or weed control at 250 g/ha (rice (Oryra sativa)): 0%; pest or weed control at 250 g/ha [11, 12]: 0% |
| CN1C[C@H](c2cccc(C(C)(F)F)c2)[C@@H](C(=O)Nc2cccc(F)c2F)C1=O [Compound 1316] | 60 | 60 | 30 | 40 | 90 | 90 | 70 | 80 | 80 | 80 | 90 | 90 | 50 | 60 | 30 | 70 | 50 | 80 | 60 | 80 | pest or weed control at 250 g/ha [9]: 75%; pest or weed control at 250 g/ha [10]: 90%; pest or weed control at 250 g/ha (rice (Oryra sativa)): 0%; pest or weed control at 250 g/ha [11, 13]: 0% |
| CN1C[C@H](c2cccc(C(C)(F)F)c2)[C@@H](C(=O)Nc2ccccc2F)C1=O [Compound 1317] | 60 | 60 | 20 | 30 | 90 | 90 | 80 | 80 | 80 | 80 | 90 | 90 | 30 | 20 | 0 | 20 | 40 | 80 | 60 | 60 | pest or weed control at 250 g/ha [9]: 85%; pest or weed control at 250 g/ha [10]: 100%; pest or weed control at 250 g/ha (rice (Oryra sativa)): 0%; pest or weed control at 250 g/ha [11, 13]: 0% |
| CN1C[C@H](c2cccc(C(C)(F)F)c2)[C@@H](C(=O)Nc2ccccc2S(C)(=O)=O)C1=O [Compound 1318] | 60 | 60 | 0 | 40 | 80 | 90 | 70 | 70 | 60 | 80 | 90 | 90 | 30 | 40 | 10 | 60 | 20 | 40 | 50 | 80 | pest or weed control at 250 g/ha [9]: 65%; pest or weed control at 250 g/ha [10]: 85%; pest or weed control at 250 g/ha (rice (Oryra sativa)): 0%; pest or weed control at 250 g/ha [11, 13]: 0% |
